Source: PubChem BioAssay AID1963861 (Molecular Pharmacology Branch, DTP, NCI, 2024)

Test system: 885724-159-R-J1-PDC KRAS PDC multicell spheroid viability
Experiment: Anticancer human tumor 885724-159-R-J1-PDC patient-derived pancreatic adenocarcinoma cell line growth inhibition [KRAS2]
Details: for IC50: curve of first compound; for viability, T/C: stronger effect = lower value
How it was run: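 Combination screen of spheroid viability in tumor-cell co-cultures with endothelial (HUVEC) and mesenchymal stem cell stroma. Each agent was tested in half-log dilutions, topping at clinical Cmax or at 10 microM without a known Cmax.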

[1] = second compound 0.0316 µM, first compound 0.0316 µM
[2] = second compound 0.0316 µM, first compound 0.1 µM
[3] = second compound 0.0316 µM, first compound 0.316 µM
[4] = second compound 0.0316 µM, first compound 1 µM
[5] = second compound 0.0316 µM, first compound 3.16 µM
[6] = second compound 0.0316 µM, first compound 10 µM
[7] = second compound 0.1 µM, first compound 0.0316 µM
[8] = second compound 0.1 µM, first compound 0.1 µM
[9] = second compound 0.1 µM, first compound 0.316 µM
[10] = second compound 0.1 µM, first compound 1 µM
[11] = second compound 0.1 µM, first compound 3.16 µM
[12] = second compound 0.1 µM, first compound 10 µM
[13] = second compound 0.316 µM, first compound 0.0316 µM
[14] = second compound 0.316 µM, first compound 0.1 µM
[15] = second compound 0.316 µM, first compound 0.316 µM
[16] = second compound 0.316 µM, first compound 1 µM
[17] = second compound 0.316 µM, first compound 3.16 µM
[18] = second compound 0.316 µM, first compound 10 µM
[19] = second compound 1 µM, first compound 0.0316 µM
[20] = second compound 1 µM, first compound 0.1 µM
[21] = second compound 1 µM, first compound 0.316 µM
[22] = second compound 1 µM, first compound 1 µM
[23] = second compound 1 µM, first compound 3.16 µM
[24] = second compound 1 µM, first compound 10 µM
[25] = second compound 3.16 µM, first compound 0.0316 µM
[26] = second compound 3.16 µM, first compound 0.1 µM
[27] = second compound 3.16 µM, first compound 0.316 µM
[28] = second compound 3.16 µM, first compound 1 µM
[29] = second compound 3.16 µM, first compound 3.16 µM
[30] = second compound 3.16 µM, first compound 10 µM
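Further: spheroids exposed to agents for 7 days before readout.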

SMILES | IC50 (second compound 0.0316 µM) | IC50 (second compound 0.1 µM) | IC50 (second compound 0.316 µM) | IC50 (second compound 1 µM) | IC50 (second compound 3.16 µM) | viability, T/C [1] | viability, T/C [2] | viability, T/C [3] | viability, T/C [4] | viability, T/C [5] | viability, T/C [6] | viability, T/C [7] | viability, T/C [8] | viability, T/C [9] | viability, T/C [10] | viability, T/C [11] | viability, T/C [12] | viability, T/C [13] | viability, T/C [14] | viability, T/C [15] | also measured
COC(=O)c1ccc2c(C(=Nc3ccc(N(C)C(=O)CN4CCN(C)CC4)cc3)c3ccccc3)c(O)[nH]c2c1 + C=CC(=O)N1CCN(c2nc(OCC3CCCN3C)nc3c2CCN(c2cccc4cccc(C)c24)C3)CC1CC#N | 2080 nM | 1860 nM | 1710 nM | 1680 nM | 431 nM | 100% | 104% | 101% | 94.5% | 24.4% | 0.81% | 100% | 97% | 98.5% | 85.1% | 19.9% | 0.65% | 100% | 100% | 91.5% | viability, T/C [16]: 83.8%; viability, T/C [17]: 11.3%; viability, T/C [18]: 0.77%; viability, T/C [19]: 90.4%; viability, T/C [20]: 91.4%; viability, T/C [21]: 85.9%; viability, T/C [22]: 84.5%; viability, T/C [23]: 7.97%; viability, T/C [24]: 0.43%; viability, T/C [25]: 58.4%; viability, T/C [26]: 51.1%; viability, T/C [27]: 54.1%; viability, T/C [28]: 38%; viability, T/C [29]: 1.11%; viability, T/C [30]: 0.32%
COc1cc(Nc2ncc3c(n2)-c2ccc(Cl)cc2C(c2c(F)cccc2OC)=NC3)ccc1C(=O)O + C=CC(=O)N1CCN(c2nc(OCC3CCCN3C)nc3c2CCN(c2cccc4cccc(C)c24)C3)CC1CC#N | > 10000 nM | > 10000 nM | > 10000 nM | > 10000 nM | < 31.6 nM | 103% | 92.4% | 87.9% | 92.4% | 93.1% | 105% | 100% | 88.8% | 88.9% | 90.4% | 99.4% | 100% | 89.2% | 84% | 83.6% | viability, T/C [16]: 84.2%; viability, T/C [17]: 76.6%; viability, T/C [18]: 89%; viability, T/C [19]: 80%; viability, T/C [20]: 76.9%; viability, T/C [21]: 77.8%; viability, T/C [22]: 75.1%; viability, T/C [23]: 75.7%; viability, T/C [24]: 78.2%; viability, T/C [25]: 46.9%; viability, T/C [26]: 46.3%; viability, T/C [27]: 42.3%; viability, T/C [28]: 54.5%; viability, T/C [29]: 60%; viability, T/C [30]: 44.6%
O=C(c1cc(Cc2n[nH]c(=O)c3ccccc23)ccc1F)N1CCN(C(=O)C2CC2)CC1 + C=CC(=O)N1CCN(c2nc(OCC3CCCN3C)nc3c2CCN(c2cccc4cccc(C)c24)C3)CC1CC#N | > 10000 nM | > 10000 nM | > 10000 nM | > 10000 nM | 4940 nM | 127% | 120% | 119% | 119% | 112% | 96.7% | 122% | 118% | 117% | 109% | 104% | 93% | 111% | 115% | 113% | viability, T/C [16]: 108%; viability, T/C [17]: 99%; viability, T/C [18]: 101%; viability, T/C [19]: 112%; viability, T/C [20]: 116%; viability, T/C [21]: 106%; viability, T/C [22]: 108%; viability, T/C [23]: 108%; viability, T/C [24]: 89%; viability, T/C [25]: 66.9%; viability, T/C [26]: 65%; viability, T/C [27]: 60.5%; viability, T/C [28]: 58%; viability, T/C [29]: 58.3%; viability, T/C [30]: 40.8%
